Test results taken from ChEMBL document CHEMBL4145505, “Rational design, chemical synthesis and biological evaluation of novel biguanides exploring species-specificity responsiveness of TAAR1 agonists” (Eur J Med Chem, 2018).

How the values were obtained:
[1] = target: T1, Trace amine-associated receptor 5 (Mus musculus, UniProt Q5QD14); experiment: Agonist activity at mouse TAAR5 expressed in HEK293 cells assessed as cAMP accumulation after 20 mins by BRET assay; format: functional, cell-based
T1 sequence (Q5QD14 whole entry): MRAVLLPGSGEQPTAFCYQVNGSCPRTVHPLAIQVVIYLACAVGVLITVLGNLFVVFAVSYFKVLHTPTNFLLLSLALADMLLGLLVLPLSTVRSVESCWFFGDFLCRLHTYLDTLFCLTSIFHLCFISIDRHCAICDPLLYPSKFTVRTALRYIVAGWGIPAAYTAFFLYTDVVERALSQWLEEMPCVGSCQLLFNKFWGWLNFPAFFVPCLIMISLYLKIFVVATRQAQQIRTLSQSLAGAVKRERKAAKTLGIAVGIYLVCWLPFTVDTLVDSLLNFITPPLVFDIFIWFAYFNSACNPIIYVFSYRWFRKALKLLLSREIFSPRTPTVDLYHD

[2] = target: Trace amine-associated receptor 1 (Mus musculus, UniProt Q923Y8); experiment: Agonist activity at mouse TAAR1 expressed in HEK293 cells assessed as cAMP accumulation after 20 mins by BRET assay; format: functional, cell-based
Sequence of Trace amine-associated receptor 1 (Mus musculus, UniProt Q923Y8) (Q923Y8 whole entry): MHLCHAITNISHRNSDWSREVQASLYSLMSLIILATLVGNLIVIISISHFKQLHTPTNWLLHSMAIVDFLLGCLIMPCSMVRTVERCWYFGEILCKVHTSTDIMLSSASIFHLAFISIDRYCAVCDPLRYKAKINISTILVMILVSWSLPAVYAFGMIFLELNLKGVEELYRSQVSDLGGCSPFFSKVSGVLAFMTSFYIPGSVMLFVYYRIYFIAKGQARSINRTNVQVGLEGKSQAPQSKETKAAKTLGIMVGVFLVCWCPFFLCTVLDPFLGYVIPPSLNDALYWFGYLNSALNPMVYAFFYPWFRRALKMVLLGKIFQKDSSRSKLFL

[3] = target: Trace amine-associated receptor 1 (Mus musculus) (UniProt Q923Y8); experiment: Agonist activity at mouse TAAR1 expressed in HEK293 cells assessed as cAMP accumulation at 10 uM after 20 mins by BRET assay relative to beta-PEA; format: functional, cell-based
Sequence of Trace amine-associated receptor 1 (Mus musculus) (Q923Y8 whole entry): as above

[4] = target: T2, Trace amine-associated receptor 1 (Homo sapiens) (UniProt Q96RJ0); experiment: Agonist activity at human TAAR1 expressed in HEK293 cells assessed as cAMP accumulation at 10 uM after 20 mins by BRET assay relative to beta-PEA; format: functional, cell-based
T2 sequence (whole entry): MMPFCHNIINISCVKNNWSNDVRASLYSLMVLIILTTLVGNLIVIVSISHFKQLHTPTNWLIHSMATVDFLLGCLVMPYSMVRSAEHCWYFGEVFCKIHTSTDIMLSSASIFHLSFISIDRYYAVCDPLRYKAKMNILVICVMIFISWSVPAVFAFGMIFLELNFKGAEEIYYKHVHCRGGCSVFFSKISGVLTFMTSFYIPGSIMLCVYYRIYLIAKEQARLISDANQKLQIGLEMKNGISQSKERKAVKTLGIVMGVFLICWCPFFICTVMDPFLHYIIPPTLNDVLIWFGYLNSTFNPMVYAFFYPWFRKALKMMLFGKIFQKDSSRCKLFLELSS

[5] = target: T3, Trace amine-associated receptor 1 (Homo sapiens, UniProt Q96RJ0); experiment: Agonist activity at human TAAR1 expressed in HEK293 cells assessed as cAMP accumulation after 20 mins by BRET assay; format: functional, cell-based
T3 sequence (Q96RJ0 whole entry): T2 sequence (whole entry)

[6] = Selectivity ratio of EC50 for mouse TAAR1 to EC50 for human TAAR1

EC50 [2] [nM] | Structure (SMILES) | EC50 [1] [µM] | also measured
 | N=C(N)/N=C(\N)N1CCN(c2ccccn2)CC1 | > 10 | 
 | COc1cccc(N2CCN(/C(N)=N/C(=N)N)CC2)c1 | > 10 | 
9000 | N=C(N)/N=C(\N)N1CCN(c2ncccn2)CC1 | > 10 | Activity [3]: 40%
 | N=C(N)/N=C(\N)N1CCN(c2cccc(C(F)(F)F)c2)CC1 | > 10 | 
 | COc1ccc(N2CCN(/C(N)=N/C(=N)N)CC2)cc1 | > 10 | Activity [4]: 110%; EC50 [5]: 11.4 µM
2660 | N=C(N)/N=C(\N)N1CCN(c2ccccc2Cl)CC1 | > 10 | Activity [3]: 57%
 | COc1ccccc1N1CCN(/C(N)=N/C(=N)N)CC1 | > 10 | 
2380 | N=C(N)NC(=N)N1CCN(c2ccccc2)CC1 | > 10 | Ratio EC50 [6]: 1.7; Activity [4]: 81%; EC50 [5]: 1.38 µM; Activity [3]: 46%
 | N=C(N)/N=C(\N)N1CCN(c2cccc(Cl)c2)CC1 | > 10 | 
 | N=C(N)/N=C(\N)N1CCN(c2ccc(Cl)cc2)CC1 | > 10 | 

Structure (SMILES) | EC50 [2] [nM] | EC50 [1] [µM] | also measured
NCCc1ccccc1 [PHENETHYLAMINE] | 120 |  | 
